Results taken from patent publication US20260159474A1, “Aminoindane Compounds and Compositions and Methods of Their Therapeutic Use” (Solvonis Therapeutics Ireland Holdings Limited, priority 2021, published 2026).
Read-outs that look alike come from different tables or passages of the source.

Columns and labels:
[1] = system: DA release in rat synaptosomes; experiment: Dopamine release assay in rat striatal synaptosomes; assay type: biochemical; details: % of maximal release with 50 μM MDMA, n=2
Method: Methods-Evaluation of Monoamine Release: The potency of therapeutic compounds for stimulating DA release was measured by an endpoint release filtration assay in a 96-well format using rat synaptosomes, essentially as described by Sandtner et al. (Mol Pharmacol., 2016; 89(1):165-75.) and Baumann et al. (Neuropsychopharmacol, 2013; 38:552-562.) with some variations. One male rat was euthanized, and striatum/cortex regions were dissected over ice. The striatum portions were weighed and put in a glass tube containing ice-cold 0.32 M sucrose (dilution 1:24 w/v) for homogenization, while the frontal cortex tissue was diluted in ice-cold 0.32 M sucrose, 1:20 w/v. Tissues were homogenized and centrifuged for 10 mins at 1000×g. The two supernatants from striatum and cortex (crude synaptosomes) were retained on ice until use.
Test compounds were then serially diluted 1:4 in neat DMSO as concentration-response curves (CRC) of 11 points. To each well of a 2-mL 96 deep-well plate (Whatman UNIPLATE 96 well) were added: 2 μL of a concentration-response curve (CRC) of test compounds or 2 μL of DMSO (no-release condition) or 2 μL of MDMA 10 mM solution (final 50 μM, for maximal release), followed by 200 μL/well of complete Krebs-phosphate buffer (126 mM NaCl, 2.4 mM KCl, 0.83 mM CaCl2), 0.8 mM MgCl2, 0.5 mM KH2PO4, 0.5 mM Na2SO4, 11.1 mM glucose, 0.05 mM pargyline, 1 mg/mL ascorbic acid, freshly added, pH 7.4), containing 1 μM reserpine to block vesicular uptake of substrate. Desipramine (100 nM) and citalopram (100 nM) were also added to the release assay buffer in order to inhibit NET and SERT uptake, respectively. The final compound dilution, then, was 1:200 in 0.5% DMSO.
3H-Dopamine was added to the tube containing the crude striatal synaptosomes preparation, diluted 1:20 (v/v) in complete Krebs-phosphate buffer, and was incubated at RT and gently mixed for 60 minutes. Then, 200 μL/well of 3H-DA loaded synaptosomes were dispensed to the compound plate (final 400 μL/well), and the release reaction proceeded for an additional 15 minutes at RT. The release was terminated by vacuum filtration and washing three times with 1 mL of saline solution (NaCl 0.9%) at RT. The retained radioactivity was counted in a scintillation counter after the addition of 50 μL/well Microscint-20.
The raw data (cpm) from residual radioactivity onto the filter were elaborated for the determination of pEC50/EC50 values. Specifically, the compound effect was expressed as the percent of maximal release obtained with 50 μM MDMA (100% release) in comparison to vehicle (0.5% DMSO, 0% release). Both MDMA and D-amphetamine in CRC were used as internal controls in each release experiment. In each plate, for both 0% and 100% of release, the signal window was monitored and Z′ calculations were determined using the raw data of four replicates. 5-HT release was calculated in an identical fashion, except that 5 nM 3H-serotonin was added to crude cortex synaptosomes preparation diluted 1:13 (v/v) in complete Krebs-phosphate buffer containing 1 μM Reserpine, 100 nM GBR12909 and 100 nM nomifensine to block vesicular, DAT, and NET uptake, respectively. Synaptosomes were then loaded with 3H-5HT for 60 minutes at RT. After dispensing loaded synaptosomes onto a compound plate (200 μL/well), the release reaction proceeded for an additional 15 minutes. Stop by filtration, counting, and data elaboration were performed as described for DA release. Compounds were tested in duplicate (n=2).

CYP3A4 = molecular target: T1, CYP3A4 (Homo sapiens, UniProt P08684); experiment: CYP450 inhibition, fluorescent probe substrate; assay type: in vitro ADME
T1 construct: purchased Life Technologies P2377; host or cells: Baculosomes
Method: Methods: Recombinant human CYP450 isoenzymes were used to metabolize pro-fluorescent probe substrates to fluorescent products. IC50 values determined from the effect of test compounds on the metabolism of these probe substrates were then used to determine inhibitory potency against CYP450 isoforms. The chemical reagents included:
The test system was based on a three-step procedure with a “mix and read” format, where reaction and reading were performed at 37° C. The assays described herein measure in vitro inhibitory effects (pIC50) of compounds on the human P450 isoforms (1A2, 2B6, 2C8, 2C9, 2C19, 2D6, 3A4) expressed in recombinant microsomes. Pro-fluorescent probe substrates were metabolized to fluorescent products by the enzymes. Fluorescence was measured in kinetic mode (1 read/minutes for 10 minutes), and the fluorescence rate was calculated.
Inhibition of the fluorescent signal resulting from P450 activation indicated inhibitory activity and facilitated calculation of the compound pIC50. A quality check was included in each compound plate, wherein the signal window was monitored by performing Z′ calculations ([…] ) and the antagonist potency of internal standards was within the pIC50±2SD range. Concentration response curves (CRCs) of compounds were run on two different test occasions (n 2) by preparing serial dilutions from the same compound stock solution.
To prepare the compound plate, test compounds serial dilutions 1 to 3 were performed from a 10 mM stock solution in DMSO by Biomek FX to generate 10 point CRC with the highest concentrations in columns 3 and 13.
100% DMSO was placed in columns 1 and 2 and used for assay low controls. CYP inhibitor (10 mM miconazole solution in DMSO) was placed in columns 23 and 24 and served as an assay high controls. 1 μL copy plates were then stamped into V-bottom drug plates at a concentration that is 200 fold the final assay concentration. The copy plates were diluted prior to the experiment with assay buffer to reach 4 times the final assay concentration (2% w/v DMSO).
A reference compound (e.g., miconazole) was included in each compound plate in row A, column 3 and 13. The reference compound was diluted and stamped together with test compounds. The final concentrations of the 10 point CRCs of test compounds in the assay plate were 5.00E-05; 1.67E-05; 5.56E-06; 1.85E-06; 6.17E-07; 2.06E-07; 6.86E-08; 2.29E-08; 7.62E-09 and 2.54E-09, respectively. All solutions were prepared immediately before the assay.
Microsomes were added to the buffer prior to the substrate addition. The solution was carefully mixed without vortexing. 30 μL/well of the mixture was then transferred to the assay plate (384-well black plate) using a 16-channel pipette. For each P450 isoformn, a separate plate was prepared and labeled with a barcode. For fluorescence measurement, 10 μL/well of the test compounds were transferred from the compound plate to the assay plate using Biomek FX and the appropriate protocol. The assay plate was then incubated at 37° C. for 10 minutes on a shaker to allow for the interaction between compounds and enzymes.
10 μL/well of the cofactor was then added to the assay plate using the Multidrop before placing the assay plate in the plate reader EnVision to measure fluorescence. The overall final DMSO concentration for the assay was 0.5%. Plates were read every minute for 10 minutes, according to a P450 isoform specific protocol, as shown below.
The CYP3A4 and CYP2C8 were assayed using the Vivid CYP3A4 Baculosomes, CYP2C8 Baculosomes and Vivid DBOMF Substrate (Life Technologies, cat. P2377, PV6138 and P2974 respectively), while 2B6 is tested by Vivid CYP2B6 Baculosomes and Vivid BOMCC Substrate (Life Technologies, cat. P3028 and P2975). Test compounds were prepared as specified above. […]

[2] = recombinant human isoenzyme, n=2, read-out: Inhibition of CYP3A4, IC50

T1 sequence (P08684 whole entry): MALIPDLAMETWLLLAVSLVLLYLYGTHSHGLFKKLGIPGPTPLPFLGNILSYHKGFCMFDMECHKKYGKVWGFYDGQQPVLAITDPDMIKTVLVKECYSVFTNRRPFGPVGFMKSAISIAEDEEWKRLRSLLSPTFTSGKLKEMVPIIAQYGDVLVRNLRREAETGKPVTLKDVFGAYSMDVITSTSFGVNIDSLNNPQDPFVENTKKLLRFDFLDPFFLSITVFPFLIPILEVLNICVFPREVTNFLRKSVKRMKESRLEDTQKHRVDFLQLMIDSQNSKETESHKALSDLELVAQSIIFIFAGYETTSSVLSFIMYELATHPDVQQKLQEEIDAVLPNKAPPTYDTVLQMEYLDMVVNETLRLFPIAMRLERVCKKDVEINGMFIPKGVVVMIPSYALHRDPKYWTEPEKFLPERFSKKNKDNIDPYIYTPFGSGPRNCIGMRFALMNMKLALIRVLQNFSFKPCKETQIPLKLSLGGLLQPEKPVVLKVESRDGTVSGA

CNC(C)Cc1ccc2c(c1)OCO2 (stereo not drawn) [MDMA]
DA Release (pEC50) [1]: 6.6 | IC50 (CYP3A4; [2]): > 50 µM

COC(=O)c1ccc2c(c1)CC(N)C2 (stereo not drawn) [CMP-405, 2-aminoindane-5-methylcarboxylate]
DA Release (pEC50) [1]: 5.6 | IC50 (CYP3A4; [2]): > 50 µM

COc1ccc2c(c1)CC(N)C2 (stereo not drawn) [MEAI, 5-methoxy-2-aminoindane]
DA Release (pEC50) [1]: 5.4 | IC50 (CYP3A4): > 50 µM

COC(=O)c1cc2c(cc1OC)CC(N)C2 (stereo not drawn) [CMP-401]
DA Release (pEC50) [1]: <4.0 | IC50 (CYP3A4; [2]): > 50 µM

COC(=O)COc1ccc2c(c1)CC(N)C2 (stereo not drawn) [CMP-402]
DA Release (pEC50) [1]: <4.0 | IC50 (CYP3A4; [2]): > 50 µM

COc1cc2c(cc1C)CC(N)C2 (stereo not drawn) [MMAI, 5-methoxy-6-methyl-2-aminoindane]
DA Release (pEC50) [1]: 4.6 | IC50 (CYP3A4): > 50 µM
